{
  "source": "ChEMBL document CHEMBL4387740",
  "about": "“Discovery of ABT-957: 1-Benzyl-5-oxopyrrolidine-2-carboxamides as selective calpain inhibitors with enhanced metabolic stability” (Bioorg Med Chem Lett, 2019)",
  "key": {"[1]": {"test": "Intrinsic clearance in human liver cytosol", "format": "ADME, subcellular", "conditions": "read-out: CLH"}, "[2]": {"test": "Selectivity ratio, ratio of Ki for CatS (unknown origin) to Ki for Cal1 (unknown origin)", "conditions": "Homo sapiens"}, "Homo sapiens [3]": {"species": "Homo sapiens", "test": "Selectivity ratio, ratio of Ki for CatK (unknown origin) to Ki for Cal1 (unknown origin)"}, "[4]": {"test": "Intrinsic clearance in cynomolgus monkey liver cytosol", "format": "ADME, subcellular, Macaca fascicularis", "conditions": "read-out: CLH"}, "[5]": {"biological_target": "T1, Calpain-1 catalytic subunit (Homo sapiens, UniProt P07384)", "T1 sequence (P07384 whole entry)": "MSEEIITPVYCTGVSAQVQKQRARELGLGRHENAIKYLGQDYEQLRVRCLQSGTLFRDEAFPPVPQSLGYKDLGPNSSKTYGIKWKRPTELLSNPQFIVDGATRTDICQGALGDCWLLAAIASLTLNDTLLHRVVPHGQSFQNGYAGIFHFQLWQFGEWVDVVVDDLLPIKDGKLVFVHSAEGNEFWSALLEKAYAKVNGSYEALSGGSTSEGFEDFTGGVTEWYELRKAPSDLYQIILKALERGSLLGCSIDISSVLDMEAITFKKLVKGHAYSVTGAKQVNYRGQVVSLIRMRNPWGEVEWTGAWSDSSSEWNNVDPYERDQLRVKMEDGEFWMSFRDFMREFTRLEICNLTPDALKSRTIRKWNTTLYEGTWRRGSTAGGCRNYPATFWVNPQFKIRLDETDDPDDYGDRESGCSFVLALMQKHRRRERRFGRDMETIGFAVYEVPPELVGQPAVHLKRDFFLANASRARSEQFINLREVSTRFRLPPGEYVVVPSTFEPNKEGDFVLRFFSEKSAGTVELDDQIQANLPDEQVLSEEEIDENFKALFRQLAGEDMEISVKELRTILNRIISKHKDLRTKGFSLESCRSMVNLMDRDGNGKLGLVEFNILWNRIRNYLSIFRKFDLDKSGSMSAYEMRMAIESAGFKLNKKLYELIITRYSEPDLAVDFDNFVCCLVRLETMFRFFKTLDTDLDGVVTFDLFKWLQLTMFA", "test": "Inhibition of Cal1 (unknown origin)"}, "Homo sapiens [6]": {"species": "Homo sapiens", "test": "Selectivity ratio, ratio of Ki for CatL (unknown origin) to Ki for Cal1 (unknown origin)"}, "[7]": {"test": "Intrinsic clearance in human liver microsomes", "format": "ADME, Microsome", "conditions": "read-out: CLH"}, "[8]": {"test": "Oral bioavailability in rat", "format": "ADME, organism-based", "conditions": "in vivo"}, "[9]": {"test": "Intrinsic clearance in rat liver microsomes", "format": "ADME, Microsome", "conditions": "read-out: CLH"}, "Homo sapiens [10]": {"species": "Homo sapiens", "test": "Selectivity ratio, ratio of Ki for CatB (unknown origin) to Ki for Cal1 (unknown origin)"}},
  "data": [
    {"compound": "NC(=O)C(=O)C(Cc1ccccc1)NC(=O)[C@H]1CCC(=O)N1Cc1ccccc1", "note": "(mixture of isomers)", "values": [
      {"measurement": "microsomal CLint", "setting": "[1]", "result": "> 70", "unit": "µL/min/mg"},
      {"measurement": "Selectivity ratio", "setting": "[2]", "result": 103},
      {"measurement": "Selectivity ratio", "setting": "Homo sapiens [3]", "result": 22},
      {"measurement": "microsomal CLint", "setting": "[4]", "result": 185, "unit": "µL/min/mg"},
      {"measurement": "Ki", "setting": "[5]", "result": 39, "unit": "nM"},
      {"measurement": "Selectivity ratio", "setting": "Homo sapiens [6]", "result": 15},
      {"measurement": "microsomal CLint", "setting": "[7]", "result": 27, "unit": "µL/min/mg"},
      {"measurement": "bioavailability", "setting": "[8]", "result": 45, "unit": "%"},
      {"measurement": "microsomal CLint", "setting": "[9]", "result": "< 23", "unit": "µL/min/mg"},
      {"measurement": "Selectivity ratio", "setting": "Homo sapiens [10]", "result": 23}
    ]}
  ]
}
